# Test results from US5874528A, “Binding peptides which interact with ligand growth factors of the epidermal growth factor receptor and erbB-2 receptor” (Georgetown University, priority 1994, dated 1999).
# Ends that are not written are not given here.
# How the values were obtained:
# MDA-MB-468 cells = test: soft agar colony formation (anchorage-independent growth) of MDA-MB-468 cells; format: cell-based, human; conditions: 10 nM, positive control
# p185^erbB-2 [1] = test: p185^erbB-2 binding competition assay with iodinated 4D5 on SK-Br-3 cells; design: species or system human; conditions: 1 nM iodinated 4D5, 3 hours at 4° C., read-out: B/T 50, displacement of the binding of iodinated 4D5 to SK-Br-3
# Protocol: SK-Br-3 cells were placed in 48-well plates (Costar) in 5% fetal calf serum (FCS), IMEM (Biofluids).Cells were washed and incubated for 30 minutes at 37° C. with binding buffer [1 mg/ml BSA, 10 mM Hepes, 20 mM glutamine, DMEM-F12 pH 7.4]. Binding studies were performed for 3 hours at 4° C. On SK-Br-3 cells, 1 nM iodinated 4D5 was incubated with various concentrations of P1 (.largecircle.), P2 (.circle-solid.), P3 (Δ), P4 (.tangle-solidup.), RL1 (.quadrature.), and RL2 (.box-solid.) unlabeled peptides (A), or with unlabeled 4D5 (B). After incubation, cells were washed three times with binding buffer, and solubilized with 1% SDS. Unspecific binding of iodinated 4D5 was determined with an excess (100 nM) of unlabeled 4D5. Each group was assayed in triplicate. Experiments were performed three times with similar results.
# To explore whether the RL2 peptide could specifically represent either a p185^erbB-2 or EGFR-extracellular binding site, we tested the aforementioned peptides in p185^erbB-2 or EGFR binding competition assays. Since iodinated gp30 was not available, p185^erbB-2 and EGFR competition assays were performed using iodinated monoclonal antibody 4D5 and iodinated EGF respectively. p185^erbB-2 monoclonal antibodies 4D5 and 7C2 were provided by Genentech, Inc., South San Francisco, Calif. […]
# p185^erbB-2 [2] = test: in vitro tyrosine phosphorylation assay in MDA-MB-453 cells; format: cell-based, human; conditions: 0.06 to 60 μM, gp30 50 pM
# Protocol: Cells were grown in 24-well plates (Costar) to 70% confluence in 5% FCS IMEM and serum-starved 24 hours prior to assays. Cells were then treated for 20 minutes at 37° C. with RL1 or RL2 with and without gp30 (at concentrations given below), as indicated on Figure panels, washed once with serum-free IMEM, and lysed at 4° C. for 10 minutes with a lysis buffer containing SDS (Emprotech). Total cellular proteins were subjected to 4-20% SDS-PAGE, and blotted onto Hybond-ECL membranes (Amersham). Membranes were blocked with tris-buffered saline [5% BSA, 0.5% Tween 20] and probed with 1 μg/ml phosphotyrosine monoclonal antibody (UBI) in tris-buffered saline [0.5% BSA, 0.5% Tween 20]. Immune complexes were detected using the ECL-western blotting kit (Amersham) as indicated by the manufacturer. […] The values obtained were corrected for background and expressed as control percentages. […]
# (§1) To further characterize RL2 blocking effects, we analyzed the homologous peptides for their ability to prevent the tyrosine phosphorylation induced by gp30 either in p185^erbB-2 or EGFR, or both of them. […] (Densitometric analyses of autoradiograms were performed using a SAMBA 4000 system (Dynatech Laboratories). The values obtained were corrected for background and expressed as control percentages. Differences were considered significant when effects more than 10% versus controls occurred.)
# SK-Br-3 cells = test: soft agar colony formation of SK-Br-3 cells with gp30 or p75; format: cell-based, human; conditions: 5×10^-12 M gp30 or 2×10^-12 M p75; 60 μM RL2, 127 nM ECD
# Protocol: (§2) MDA-MB-453 (A), or SK-Br-3 cells (B) were plated in 35 mm tissue culture dishes (Costar). A bottom layer of 1 ml IMEM containing 0.6% Bacto-agar (Difco), 2 mM glutamine, and 10% FCS was prepared. Top layers contained 2×10^4 cells and samples in 0.4% Bacto-agar, 10% FCS IMEM. Samples were sterilized prior to plating by filtration using 0.22 μM Millex CU millipore filter. The legend of peptide symbols in A is identical to the one in FIG. 2. The following concentrations were used in B: 5×10^-12 M gp30, 2×10^-12 M p75, 60 μM RL2, and 127 nM p185^erbB-2 extracellular domain (ECD) as positive control. Experiments were carried out in FCS that had been tested for optimal cloning efficiency. Cells were incubated 7-9 days in humidified 5% CO2 atmosphere at 37° C. Colonies larger than 60-μm were counted using a Baush and Lomb Stem Cell Colony Counter (Artex Systems Corp.). Each group was assayed in triplicate. Experiments were performed three times.
# To illustrate RL2 antiproliferative effects as a blocking action on the p185^erbB-2 ligand-mediated effects, we tested this peptide and the ECD of p185^erbB-2 on the anchorage-independent growth of SK-Br-3 cells in the presence of stimulating concentrations of either gp30 or p75 proteins, the latter known to interact exclusively with p185^erbB-2 (Lupu, et al., Proc. Natl. Acad. Sci. USA, 89:2287-91 (1992)). […]
# MDA-MB-453 cells = test: soft agar colony formation (anchorage-independent growth) of MDA-MB-453 cells; format: cell-based, human; conditions: for Number of Colonies (± SD): MDA-MB 453 cells, untreated 942 ± 120
# Protocol: as §2
# *Cells were treated as indicated. The monoclonal antibody 4D5 (kindly
# provided by Genentech, CA) and the RL2 peptide were used as positive
# controls. Soft agar cloning assays were carried out as previously
# described (Lupu, et al., Proc. Natl. Acad. Sci. USA, 87:2287-91, 1992).
# Colonies larger than 69 μM were counted using a Baush & Lomb Stem Cell
# Colony Counter (Artex Systems Corp.). Each group was assayed in
# triplicate. Experiments were performed three times with similar results.
# monoclonal antibody 4D5 = test: binding of iodinated RL2 to a 4D5 affinity column
# Protocol: First, RL2 peptide was iodinated using Iodogen, and purified with high-pressure liquid chromatography (HPLC); the specific activity was 26,000 cpm/μg peptide. […] 3×10^6 cpm of iodinated RL2 were loaded onto a protein A-sepharose column coupled with 4D5 (coupling percentage: 98.5%). Elutions were performed with increasing concentrations of MgCl2 from 1 to 5M (see Table 1). The specific elution marked as * on Table I was obtained at 2M MgCl2. The flow-through contained only background levels of radioactivity.
# EGFR [3] = test: in vitro tyrosine phosphorylation assay in MDA-MB-468 cells; format: cell-based, human
# Protocol: Cells were grown in 24-well plates (Costar) to 70% confluence in 5% FCS IMEM and serum-starved 24 hours prior to assays. Cells were then treated for 20 minutes at 37° C. with RL1 or RL2 with and without gp30 (at concentrations given below), as indicated on Figure panels, washed once with serum-free IMEM, and lysed at 4° C. for 10 minutes with a lysis buffer containing SDS (Emprotech). Total cellular proteins were subjected to 4-20% SDS-PAGE, and blotted onto Hybond-ECL membranes (Amersham). Membranes were blocked with tris-buffered saline [5% BSA, 0.5% Tween 20] and probed with 1 μg/ml phosphotyrosine monoclonal antibody (UBI) in tris-buffered saline [0.5% BSA, 0.5% Tween 20]. Immune complexes were detected using the ECL-western blotting kit (Amersham) as indicated by the manufacturer. Densitometric analyses were performed using a SAMBA 4000 system (Dynatech Laboratories). The values obtained were corrected for background and expressed as control percentages. Differences were considered significant when effects more than 10% versus controls occurred.
# Upper panels correspond to MDA-MB-453 cells. […] Lower panels correspond to MDA-MB-468 cells. […] Lanes 1 to 4 correspond to increasing concentrations of RL2 (left panels), or RL1 (right panels) peptides. 1: 0.06 μM; 2: 0.6 μM; 3: 6 μM; 4: 60 μM. Experiments were repeated four times with similar results.
# FIG. 6B: EGFR Tyrosine Phosphorylation assays were performed using MDA-MB-468 cells, as described for FIG. 3. […]
# as §1
# p185^erbB-2 [4] = test: in vivo phosphorylation assay and phosphoaminoacid analysis in MDA-MB-453 cells; format: cell-based, human
# Protocol: MDA-MB-453 cells were grown in 35 mm dishes (Costar) to 70% confluence in 5% FCS IMEM. Cells were washed twice with PO4 free DMEM (Gibco), and then incubated for 3 hours at 37° C. with [^32 P]-orthophosphate (Amersham; 1.0 mCi/ml in each dish). Cells were then treated for 10 minutes at 37° C. with samples: control, 60 μM RL2, 50×10^-12 M gp30, or 50×10^-12 M gp30 plus 60 μM RL2. All samples were preincubated 30 minutes at 37° C. Cells were washed twice with PBS, and lysed at 4° C. for 10 minutes with a lysis buffer containing 1% Triton X-100, and kinase, protease and phosphatase inhibitors as described (Frackelton, et al., J. Biol. Chem., 259:7909 (1984)). After centrifugation at 10,000× g for 15 minutes at 4° C., tyrosinephosphorylated proteins were isolated from supernatants by microbath affinity chromatography on the phosphotyrosine monoclonal antibody 1G2 (provided by Dr. A. R. Frakelton) as previously described (Frackelton, et al., J. Biol Chem., 259:7909 (1984); and Beitz, et al., Proc. Natl. Acad. Sci. USA, 88:2021 (1991)), eluted with 1 mM phenylphosphate in PBS pH 7.4, and purified further by immunoprecipitation with p185^erbB-2 monoclonal antibody Ab-3 (Oncogene Science) adsorbed on protein A-Sepharose. […]
# EGFR [5] = test: EGFR binding competition assay with iodinated EGF in MDA-MB-468 cells; design: species or system human; conditions: 1 nM iodinated EGF, peptide 0.6, 6, 60 μM
# Protocol: FIG. 6A: EGFR binding competition assays were performed in MDA-MB-468 cells. In brief, 150,000 cells/well were plated in 24 well plate. The binding assays were performed as described by Lonardo, et al., Mol. Cell. Biol, 2:992 (1990). In brief, 1 nM iodinated EGF (Amersham) was incubated with increasing concentrations of RL2 or RL2-K (0.6, 6, 60 μM, respectively). Increasing concentrations of unlabelled EGF were used as control, as shown in the insert. Each group was assayed in triplicate. Values are from three experiments and expressed as the mean percent of control cases.
# To explore whether the RL2 peptide could specifically represent either a p185^erbB-2 or EGFR-extracellular binding site, we tested the aforementioned peptides in p185^erbB-2 or EGFR binding competition assays. Since iodinated gp30 was not available, p185^erbB-2 and EGFR competition assays were performed using iodinated monoclonal antibody 4D5 and iodinated EGF respectively. p185^erbB-2 monoclonal antibodies 4D5 and 7C2 were provided by Genentech, Inc., South San Francisco, Calif.
# Among the peptides tested, only RL2 displaced in a dose-dependent manner (B/T 50: 8 μM) the binding of iodinated 4D5 to SK-Br-3 (FIG. 2).
Substance,response of MDA-MB-468 cell anchorage-independent growth (MDA-MB-468 cells),IC50 (p185^erbB-2 [1]) [µM],inhibition of gp30-stimulated level of p185^erbB-2 tyrosine phosphorylation (p185^erbB-2 [2]) [%],inhibiting effects on anchorage-independent growth of SK-Br-3 cells in presence of gp30 or p75 (SK-Br-3 cells),inhibition of MDA-MB-453 cell anchorage-independent growth (MDA-MB-453 cells; 6-60 μM) [%],Number of Colonies (± SD) (MDA-MB-453 cells; 6 μM),Number of Colonies (± SD) (MDA-MB-453 cells; 60 μM),"radioactivity, flow through (monoclonal antibody 4D5; input 3 × 10^6 cpm iodinated RL2, flow through)","radioactivity, wash (monoclonal antibody 4D5; input 3 × 10^6 cpm iodinated RL2, wash)",binding of iodinated peptide to 4D5-affinity column (monoclonal antibody 4D5; protein A-sepharose column coupled with 4D5),"inhibition of gp30-stimulated level of EGFR tyrosine phosphorylation (EGFR [3]; 60 μM, gp30 50 pM)","inhibition of baseline level of EGFR tyrosine phosphorylation (EGFR [3]; 60 μM, no gp30) [%]","effect on EGF-induced tyrosine phosphorylation of EGFR (EGFR [3]; EGF 1.68 nM, peptide 0.6, 6 and 60 μM)","decrease of p185^erbB-2 tyrosine level of phosphorylation, presence of gp30-stimulation (p185^erbB-2 [4]; 60 μM RL2, 50×10^-12 M gp30) [%]","decrease of p185^erbB-2 tyrosine level of phosphorylation, absence of gp30-stimulation (p185^erbB-2 [4]; 60 μM RL2, [32P]-orthophosphate labelling) [%]",effect on binding of iodinated EGF to the EGFR (EGFR [5])
"EGF: epidermal growth factor, positive control",did respond,,,,,,,,,,,,,,,
LGLRSLRE [RL2],,8,80,fully reversed,72,245 ± 46,123 ± 21,2.6 × 10^5 cpm,2.54 × 10^5 cpm,specifically bind to a 4D5-affinity column,not the gp30-stimulated level,71,no effect,26,50,absence of an effect
"p185^erbB-2 ECD: p185^erbB-2 extracellular domain (ECD), positive control",,,,fully reversed,,,,,,,,,,,,
